Results as given in US8410114B2, “2-pyrazinone derivatives for the treatment of disease or condition in which inhibition of neutrophil elastase activity is beneficial” (AstraZeneca AB, priority 2006, dated 2013).

What follows are compounds tested against T1, Human Neutrophil Elastase (HNE) (Homo sapiens, UniProt P08246) (assay: Human Neutrophil Elastase Quenched-FRET Assay). Details: HNE 1.7 nM, substrate MeOSuc-AAPV-AMC 100 μM, 15 min preincubation, 30 min incubation at room temperature; read-out: Inhibition of Human Neutrophil Elastase IC50.
T1 construct: Human Neutrophil Elastase (HNE) purified from serum (Calbiochem art. 324681); purchased Calbiochem 324681; host or cells: purified from human material ('serum' in the source)
T1 sequence (P08246 30-247 limits assumed): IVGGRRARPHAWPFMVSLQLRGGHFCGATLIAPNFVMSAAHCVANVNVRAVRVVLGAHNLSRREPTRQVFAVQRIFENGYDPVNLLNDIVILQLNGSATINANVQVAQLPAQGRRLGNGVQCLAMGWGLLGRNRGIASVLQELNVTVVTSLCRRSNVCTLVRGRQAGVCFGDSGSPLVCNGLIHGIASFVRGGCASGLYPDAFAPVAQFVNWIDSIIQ
Assay type: biochemical
Description: Human Neutrophil Elastase Quenched-FRET Assay
The assay uses Human Neutrophil Elastase (HNE) purified from serum (Calbiochem art. 324681; Ref. Baugh, R. J. et al., 1976, Biochemistry. 15, 836-841). HNE was stored in 50 mM sodium acetate (NaOAc), 200 mM sodium chloride (NaCl), pH 5.5 with added 30% glycerol at −20° C. The protease substrate used was Elastase Substrate V Fluorogenic, MeOSuc-AAPV-AMC (Calbiochem art. 324740; Ref. Castillo, M. J. et al., 1979, Anal. Biochem. 99, 53-64). The substrate was stored in dimethyl sulphoxide (DMSO) at −20° C. The assay additions were as follows: Test compounds and controls were added to black 96-well flat-bottom plates (Greiner 655076), 1 μL in 100% DMSO, followed by 30 μL HNE in assay buffer with 0.01% Triton (trade mark) X-100 detergent. The assay buffer constitution was: 100 mM Tris(hydroxymethyl)aminomethane (TRIS) (pH 7.5) and 500 mM NaCl. The enzyme and the compounds were incubated at room temperature for 15 minutes. Then 30 μl substrate in assay buffer was added. The assay was incubated for 30 minutes at room temperature. The concentrations of HNE enzyme and substrate during the incubation were 1.7 nM and 100 μM, respectively. The assay was then stopped by adding 60 μl stop solution (140 mM acetic acid, 200 mM sodium monochloroacetate, 60 mM sodium acetate, pH 4.3). Fluorescence was measured on a Wallac 1420 Victor 2 instrument at settings: Excitation 380 nm, Emission 460 nm. IC50 values were determined using Xlfit curve fitting using model 205.
In the case of `CNC(=O)c1nc(-c2ccnn2-c2ccc(C#N)cc2)c(C)n(-c2cccc(C(F)(F)F)c2)c1=O` [Example 1, 6-[2-(4-Cyano-phenyl)-2H-pyrazol-3-yl]-5-methyl-3-oxo-4-(3-trifluoromethyl-phenyl)-3,4-dihydro-pyrazine-2-carboxylic acid methylamide], the IC50 is reported as 0.33 nM.
Compound `Cc1c(-c2ccnn2-c2ccc(C#N)nc2)nc(C(=O)NC2CC2)c(=O)n1-c1cccc(C(F)(F)F)c1` [Example 12, 6-[1-(6-Cyanopyridin-3-yl)-1H-pyrazol-5-yl]-N-cyclopropyl-5-methyl-3-oxo-4-[3-(trifluoromethyl)phenyl]-3,4-dihydropyrazine-2-carboxamide] has an IC50 of 1 nM.
For `Cc1c(-c2ccnn2-c2ccc(C#N)cc2)nc(C(=O)NCc2ccc(S(C)(=O)=O)cn2)c(=O)n1-c1cccc(C(F)(F)F)c1` [Example 2, 6-[2-(4-Cyano-phenyl)-2H-pyrazol-3-yl]-5-methyl-3-oxo-4-(3-trifluoromethyl-phenyl)-3,4-dihydro-pyrazine-2-carboxylic acid (5-methanesulfonyl-pyridin-2-ylmethyl)-amide], the IC50 was 0.32 nM.
`Cc1c(-c2ccnn2-c2ccc(C#N)cc2)nc(C(=O)NCC(=O)O)c(=O)n1-c1cccc(C(F)(F)F)c1` [Example 16, 2-[[6-[2-(4-Cyanophenyl)pyrazol-3-yl]-5-methyl-3-oxo-4-[3-(trifluoromethyl)phenyl]-3,4-dihydro-pyrazine-2-carbonyl]amino]acetic acid] gave an IC50 of 0.61 nM.
